Results from the NIST ThermoML archive (doi:10.1021/je5010164).

Settings: Liquid, Frequency=8 MHz, Pulse-echo method

C1CCCC1 [cyclopentane]
Settings | speed of sound [m/s]
258.15 K, 100 kPa | 1419.1
258.15 K, 5072 kPa | 1446.1
258.15 K, 10244 kPa | 1473
258.15 K, 15262 kPa | 1498.1
258.15 K, 20158 kPa | 1521.7
258.15 K, 25083 kPa | 1544.5
258.15 K, 30141 kPa | 1567.1
273.15 K, 100 kPa | 1336.6
273.15 K, 5169 kPa | 1366.7
273.15 K, 10059 kPa | 1394.3
273.15 K, 15219 kPa | 1422
273.15 K, 20251 kPa | 1447.9
273.15 K, 25184 kPa | 1472.3
273.15 K, 30227 kPa | 1496.3
293.15 K, 105 kPa | 1230.1
293.15 K, 5059 kPa | 1263
293.15 K, 10088 kPa | 1294.4
293.15 K, 15198 kPa | 1324.6
293.15 K, 20121 kPa | 1352.3
293.15 K, 25192 kPa | 1379.6
293.15 K, 30134 kPa | 1405
313.15 K, 107 kPa | 1126.8
313.15 K, 5113 kPa | 1164
313.15 K, 10058 kPa | 1198.3
313.15 K, 15132 kPa | 1231.3
313.15 K, 20097 kPa | 1261.8
313.15 K, 25098 kPa | 1291
313.15 K, 30162 kPa | 1319.2
333.15 K, 149 kPa | 1026.6
333.15 K, 5035 kPa | 1067.6
333.15 K, 10139 kPa | 1107
333.15 K, 15108 kPa | 1142.5
333.15 K, 20130 kPa | 1176.2
333.15 K, 25152 kPa | 1208
333.15 K, 30170 kPa | 1238
353.15 K, 261 kPa | 929.4
353.15 K, 5019 kPa | 974.63
353.15 K, 10069 kPa | 1018.2
353.15 K, 15107 kPa | 1058.1
353.15 K, 20063 kPa | 1094.4
353.15 K, 25009 kPa | 1128.3
353.15 K, 30157 kPa | 1161.5
